The record followed here is article PMC9181938, “Fluorinated Analogues of Lepidilines A and C: Synthesis and Screening of Their Anticancer and Antiviral Activity” (Molecules, 2022).

Series [1] is described as follows: Cytotoxicity screening at 10 µM (MTT). The series is classed as cell-based, Macaca mulatta. The note with it: Macaca mulatta, LLC-MK2 cells, read-out: Cell line (viability %) LLC-MK2.
Series [2] concerns Human herpesvirus 5 (HCMV). Kind of series: Antiviral screening at 10 µM, plaque reduction. The series is classed as cell-based. The note with it: Human betaherpesvirus 5, antiviral screening, HCMV-infected cells, read-out: Cell line (viability %) HCMV. As to the method: Antiviral properties of compounds 1a, 1c, 1a[PF6], 1c[PF6], 9b[PF6], 9c[PF6], 10a–10d, 2a, and 2b were assessed against five viruses: Human herpesvirus 1 (HSV-1, VR-539), Human parainfluenza virus type 3 (HPIV-3, VR-93), Human adenovirus 5 (AdV5, VR-5), Human herpesvirus 5 (HCMV, VR-977), and Encephalomyocarditis virus (EMCV, VR-1479). Viruses were purchased from the American Type Culture Collection (ATCC, Manassas, VA, USA).
All tested compounds were dissolved in DMSO (dimethyl sulfoxide, Sigma-Aldrich, Darmstadt, Germany) and then suspended in Minimum Essential Medium (MEM; Sigma-Aldrich, Darmstadt, Germany) supplemented with 2% heat-inactivated fetal bovine serum (FBS; Sigma-Aldrich, Darmstadt, Germany), 2 mM L-glutamine (Sigma-Aldrich, Darmstadt, Germany), and 100 units/mL penicillin G with […] streptomycin (Sigma-Aldrich, Darmstadt, Germany).
Vero, LLC-MK2, NCTC clone 929, MRC-5, and HeLa cells were propagated in Minimum Essential Medium (MEM; Sigma-Aldrich, Darmstadt, Germany) supplemented with 10% heat-inactivated fetal bovine serum (FBS; Sigma-Aldrich, Darmstadt, Germany) and 100 units/mL penicillin G with […] streptomycin (Sigma-Aldrich, Darmstadt, Germany). Upon reaching 80–90% confluency, cells were harvested with 0.25% trypsin in 1 mM EDTA (Life Technologies, Warsaw, Poland) and seeded onto 96-well microplates at 2 × 10^5 cells/mL. After overnight incubation of cells at 37 °C in a humidified atmosphere containing 5% CO2, the culture medium was removed, and cells were inoculated with the respective virus solution in MEM supplemented with 2% FBS and antibiotics (HSV-1 MOI 0.005, 1000 virions/mL; HPIV-3 MOI 0.01, 2000 virions/mL; AdV5 MOI 0.005, 1000 virions/mL, EMCV MOI 0.005, 1000 virions/mL, HCMV 20 PFU (plaque forming units) per well). After a 1-h (HSV-1, HPIV-3, AdV5, and EMCV) or 2-h adsorption period (HCMV), the residual virus was removed, and the infected cells were further incubated with a 100 μL freshly prepared solution of tested compounds diluted with a maintenance medium supplemented with 2% FBS to obtain compound concentrations of 10 µM. The final concentration of DMSO in the medium was 0.1%. All experiments were carried out in triplicate. The cells monolayers were incubated with the compounds at 37 °C in a humidified atmosphere containing 5% CO2 until the typical cytopathic effect (CPE) was visible. Viral infection was evaluated by the MTT assay or plaque reduction assay (HCMV). After incubation with drugs, the cells were treated with 3-(4,5-dimethylthiazol-2-yl)-2,5-diphenyltetrazolium bromide dye solution (MTT, Sigma-Aldrich, Darmstadt, Germany) (25 μL, 5 mg/mL) for 2 h and lysed with solvent solution (100 μL) containing: DMF (Sigma-Aldrich, Darmstadt, Germany) (45 mL), SDS (Sigma-Aldrich, Darmstadt, Germany) (13.5 g), and distilled water (55 mL). After overnight incubation at 37 °C, the optical density at 550 nm and a reference wavelength of 670 nm were measured on a microplate spectrophotometer, Varioskan Lux (Thermo Fisher Scientific, Waltham, MA, USA). The number of HCMV plaques was counted under an inverted microscope Olympus IX73 (Olympus, Tokyo, Japan).

A short description of series [3]: Cytotoxicity screening at 10 µM (MTT). The series is classed as cell-based, Human. The note with it: human, MRC-5 cells, read-out: Cell line (viability %) MRC-5.
A short description of series [4]: Cytotoxicity screening at 10 µM (MTT). The series is classed as cell-based, Mus musculus. The note with it: Mus musculus, NCTC clone 929 cells, read-out: Cell line (viability %) NCTC clone 929.
Series [5] can be described thus: Cytotoxicity screening at 10 µM (MTT). The series is classed as cell-based, Cercopithecus aethiops. The note with it: Cercopithecus aethiops, Vero cells, read-out: Cell line (viability %) Vero.
The test system of series [6] is Encephalomyocarditis virus (EMCV). Kind of series: Antiviral screening at 10 µM. The note with it: Cardiovirus A, EMCV-infected cells, read-out: Cell line (viability %) EMCV. The series is classed as cell-based. The procedure, abridged:
(§1)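 Infected Vero, LLC-MK2, NCTC 929 or HeLa cell monolayers (MOI 0.005; HPIV-3 MOI 0.01) were treated after 1-h adsorption with compounds at 10 µM (0.1% DMSO). Cultures were incubated at 37 °C until cytopathic effect was visible. Viral infection was scored by MTT assay (OD 550/670 nm), in triplicate.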

Series [7] deals with Human adenovirus 5 (AdV5). Kind of series: Antiviral screening at 10 µM. The note with it: Human mastadenovirus C, AdV5-infected cells, read-out: Cell line (viability %) AdV5. The series is classed as cell-based. The method in brief: as §1
For series [8], the system named is Human parainfluenza virus type 3 (HPIV-3). Kind of series: Antiviral screening at 10 µM. The series is classed as cell-based. The note with it: Human respirovirus 3, antiviral screening, HPIV-3-infected cells, read-out: Cell line (viability %) HPIV-3. The method in brief:
as §1

Series [9] deals with Human herpesvirus 1 (HSV-1). Kind of series: Antiviral screening at 10 µM. The series is classed as cell-based. The note with it: Human alphaherpesvirus 1, antiviral screening, HSV-1-infected cells, read-out: Cell line (viability %) HSV-1. The method in brief: as §1

Where two headings read alike, the source gives them in different places.

As usually defined, the viability is a read-out of living cells in per cent, often relative to untreated cells. Consider `Cc1c(C)n(Cc2ccccc2)c(=S)n1Cc1ccccc1` [Compound 10a], for which the viability at 48 h, 10 µM in series [1] was determined as 64.9%; in series [3], 74.3%; in series [4] it was 93.8%; in [5], 83.8%. For the same compound, the viability at 10 µM in [2] stood at 3.6%; in series [6] it was 79.6%; in series [7], 62%; in [8], 69.2%; in [9] it was 29.7%.
